Source: the supplement of paper PMC10307832

What was measured:
Assay in all cases: relative viability (nuclei count vs DMSO), 5 days (fraction); higher = more cells survive
Axitinib + Navitoclax = compound: CNC(=O)c1ccccc1Sc1ccc2c(/C=C/c3ccccn3)n[nH]c2c1 [Axitinib] + CC1(C)CCC(c2ccc(Cl)cc2)=C(CN2CCN(c3ccc(C(=O)NS(=O)(=O)c4ccc(N[C@H](CCN5CCOCC5)CSc5ccccc5)c(S(=O)(=O)C(F)(F)F)c4)cc3)CC2)C1 [Navitoclax] (partner 0.5 µM)
Method in brief: (§1)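 Five library-drug doses in √10 steps were combined with a fixed anchor-drug dose, or a single drug was given alone, by pin tool to lung cancer cell lines in 1536-well plates the day after seeding. Nuclei were stained and counted after 5 days. Relative viability is the nuclei count in treated wells over that in vehicle wells, taken as the median of duplicate plates.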

Bemcentinib + Vorinostat = compound: Nc1nc(Nc2ccc3c(c2)CC[C@@H](N2CCCC2)CC3)nn1-c1cc2c(nn1)-c1ccccc1CCC2 [Bemcentinib] + O=C(CCCCCCC(=O)Nc1ccccc1)NO [Vorinostat] (partner 1 µM)
Method in brief: as §1

Bemcentinib + AZD7762 = compound: Nc1nc(Nc2ccc3c(c2)CC[C@@H](N2CCCC2)CC3)nn1-c1cc2c(nn1)-c1ccccc1CCC2 [Bemcentinib] + NC(=O)Nc1cc(-c2cccc(F)c2)sc1C(=O)N[C@H]1CCCNC1 [AZD7762] (partner 0.2 µM)
Method in brief: as §1

Bemcentinib + Decitabine = compound: Nc1nc(Nc2ccc3c(c2)CC[C@@H](N2CCCC2)CC3)nn1-c1cc2c(nn1)-c1ccccc1CCC2 [Bemcentinib] + Nc1ncn([C@H]2C[C@H](O)[C@@H](CO)O2)c(=O)n1 [Decitabine] (partner 2 µM)
Method in brief: as §1

Cell Line	relative viability (Axitinib + Navitoclax; first compound 0.005 µM)	relative viability (Axitinib + Navitoclax; first compound 0.01581 µM)	relative viability (Axitinib + Navitoclax; first compound 0.05 µM)	relative viability (Axitinib + Navitoclax; first compound 0.1581 µM)	relative viability (Axitinib + Navitoclax; first compound 0.5 µM)	relative viability (Bemcentinib + Vorinostat; first compound 0.04 µM)	relative viability (Bemcentinib + Vorinostat; first compound 0.1265 µM)	relative viability (Bemcentinib + Vorinostat; first compound 0.4 µM)	relative viability (Bemcentinib + Vorinostat; first compound 1.265 µM)	relative viability (Bemcentinib + Vorinostat; first compound 4 µM)	relative viability (Bemcentinib + AZD7762; first compound 0.04 µM)	relative viability (Bemcentinib + AZD7762; first compound 0.1265 µM)	relative viability (Bemcentinib + AZD7762; first compound 0.4 µM)	relative viability (Bemcentinib + AZD7762; first compound 1.265 µM)	relative viability (Bemcentinib + AZD7762; first compound 4 µM)	relative viability (Bemcentinib + Decitabine; first compound 0.04 µM)	relative viability (Bemcentinib + Decitabine; first compound 0.1265 µM)	relative viability (Bemcentinib + Decitabine; first compound 0.4 µM)	relative viability (Bemcentinib + Decitabine; first compound 1.265 µM)	relative viability (Bemcentinib + Decitabine; first compound 4 µM)
A-427	0.999	1.05	0.925	0.958	1.04	0.841	0.896	0.867	0.836	0.82	0.75	0.856	0.746	0.63	0.637	0.569	0.525	0.502	0.57	0.559
NCI-H596	0.979	0.859	1.04	0.847	0.969	0.582	0.449	0.721	0.391	0.674	1.09	1.13	1.2	0.941	1.12	1	1.04	1.09	1.1	1.08
LOU-NH91	0.744	0.467	0.66	0.645	0.802	0.845	0.871	0.999	0.917	0.945	0.423	0.77	0.791	0.806	0.799	0.78	0.82	0.837	0.863	0.801
HOP-62	1.07	1.06	1.02	1.06	1.12	0.606	0.738	0.79	0.672	0.623	0.531	0.505	0.599	0.527	0.511	0.25	0.198	0.255	0.207	0.216
NCI-H1993	1.13	0.937	1.07	1.03	1.1	0.739	0.716	1.07	0.981	1.05	0.778	1.01	1.06	0.9	0.658	0.541	0.49	0.627	0.577	0.68
